Experimental data as given in US20240150345A1, “GCN2 MODULATING COMPOUNDS AND USES THEREOF” (HiberCell, Inc., priority 2021, published 2024).

Molecular target: T1, GCN2 (Homo sapiens, UniProt Q9P2K8)
T1 construct: purchased Carma Biosciences (so in the source)
Test: TR-FRET biochemical assay for inhibition of GCN2 activity
Settings: 2 nM GCN2, 100 nM GFP-eIF2α, 150 μM ATP, 1.5 hours at 25° C.
Description: Exemplary compounds from the above Examples were tested for ability to inhibit GCN2 activity using a time resolved fluorescence energy transfer (TR-FRET) assay. Assay procedures and results are described below for Examples 12-105.
GCN2 protein was obtained from Carma Biosciences (cat #05-153). The protein was diluted in assay buffer (ThermoFisher Scientific, #PV6135), 2 mM dithiothreitol (DTT), to obtain a final concentration of 2 nM and 5 μL was plated in a 384-well white assay plate. Test compounds were serially diluted to 11 concentrations by 3-fold dilution in DMS0 and 10 nL of stock was plated into 384 well white assay plate. DMS0 was used as a vehicle control. GFP-eIF2α protein was obtained from ThermoFisher (cat #PV4809). The protein was diluted in assay buffer to a 2× concentration of 200 nM along with 300 μM ATP (final concentration of 100 nM GFP-eIF2α and 150 μM ATP) in the presence of 2 mM DTT and a […] was added to each well containing the GCN2 protein and test compound. The plate was incubated in the dark at 25° C. for 1.5 hours, shaking at 1250 rpm. Tb-anti P-eIF2α (ThermoFisher cat #PV4815) was diluted to a to a concentration of 1 nM in TR-FRET Dilution Buffer (ThermoFisher cat #PV3574). 10 μL of the Tb-anti P-eIF2a solution was added to the TR-FRET reaction. The plate was incubated in the dark for 2 h at 25° C. shaking at 600 rpm. The FRET signal from the plate was read on a Envision (PerkinElmer) plate reader: • Label 1: Excitation: 340 nm, bandwidth 30 nm; Emission: 495 nm, bandwidth 10 nm. Lag time: 100 μsec. Integration time: 400 μsec. Flashes: 30. • Label 2: Excitation: 340 nm, bandwidth 30 nm; Emission: 520 nm, bandwidth 25 nm. Lag time: 100 μsec. Integration time: 400 μsec. Flashes: 30
The data were analyzed using GraphPad Prism employing a 4-parameter sigmoidal curve fit.

T1 sequence (Q9P2K8 whole entry): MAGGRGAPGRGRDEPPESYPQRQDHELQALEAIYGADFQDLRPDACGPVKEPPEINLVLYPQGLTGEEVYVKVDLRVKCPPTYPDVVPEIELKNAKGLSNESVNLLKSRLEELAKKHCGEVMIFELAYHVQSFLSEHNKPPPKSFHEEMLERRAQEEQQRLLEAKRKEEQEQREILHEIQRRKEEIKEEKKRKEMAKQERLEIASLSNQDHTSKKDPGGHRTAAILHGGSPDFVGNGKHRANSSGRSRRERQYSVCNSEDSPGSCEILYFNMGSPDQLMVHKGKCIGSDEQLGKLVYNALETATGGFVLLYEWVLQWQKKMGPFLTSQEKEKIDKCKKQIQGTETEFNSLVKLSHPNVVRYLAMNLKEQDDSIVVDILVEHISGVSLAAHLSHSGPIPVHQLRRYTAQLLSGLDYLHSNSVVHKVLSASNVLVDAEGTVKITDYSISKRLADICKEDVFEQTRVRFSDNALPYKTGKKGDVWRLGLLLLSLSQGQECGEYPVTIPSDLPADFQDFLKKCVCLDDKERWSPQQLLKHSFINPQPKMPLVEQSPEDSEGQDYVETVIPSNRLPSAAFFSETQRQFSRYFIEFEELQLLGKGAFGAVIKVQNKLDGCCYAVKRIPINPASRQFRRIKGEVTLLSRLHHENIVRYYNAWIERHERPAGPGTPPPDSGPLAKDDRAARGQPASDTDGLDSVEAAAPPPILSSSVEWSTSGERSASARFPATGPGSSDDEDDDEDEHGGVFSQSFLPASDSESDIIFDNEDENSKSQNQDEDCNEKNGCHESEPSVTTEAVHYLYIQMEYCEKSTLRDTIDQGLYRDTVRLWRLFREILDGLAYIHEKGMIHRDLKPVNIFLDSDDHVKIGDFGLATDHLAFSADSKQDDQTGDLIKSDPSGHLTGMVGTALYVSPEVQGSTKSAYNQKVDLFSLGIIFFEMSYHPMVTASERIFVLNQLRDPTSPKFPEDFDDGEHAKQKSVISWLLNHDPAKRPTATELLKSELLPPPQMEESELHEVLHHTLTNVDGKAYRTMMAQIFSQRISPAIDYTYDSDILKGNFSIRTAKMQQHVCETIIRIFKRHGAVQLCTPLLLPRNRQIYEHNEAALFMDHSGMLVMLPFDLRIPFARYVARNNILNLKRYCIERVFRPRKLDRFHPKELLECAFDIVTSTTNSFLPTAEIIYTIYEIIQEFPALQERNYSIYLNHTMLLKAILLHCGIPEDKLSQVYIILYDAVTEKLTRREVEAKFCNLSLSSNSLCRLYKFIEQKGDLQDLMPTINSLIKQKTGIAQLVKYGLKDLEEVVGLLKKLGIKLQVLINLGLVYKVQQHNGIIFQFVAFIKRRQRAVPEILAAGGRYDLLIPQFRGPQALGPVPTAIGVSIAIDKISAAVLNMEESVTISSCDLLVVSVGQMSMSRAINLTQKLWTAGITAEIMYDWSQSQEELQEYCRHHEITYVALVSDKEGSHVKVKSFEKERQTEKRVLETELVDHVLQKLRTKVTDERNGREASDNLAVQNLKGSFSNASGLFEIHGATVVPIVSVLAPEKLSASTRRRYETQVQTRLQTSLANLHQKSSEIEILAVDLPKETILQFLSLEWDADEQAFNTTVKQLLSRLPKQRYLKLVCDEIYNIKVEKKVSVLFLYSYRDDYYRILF

Row | Structure (SMILES) | IC50 [nM]
1 | COc1ncc(Cl)cc1S(=O)(=O)Nc1ccc(F)c(C(C)Oc2cnc3[nH]ncc3c2)c1F (stereo not shown) [Compound 25, 5-chloro-N-[2,4-difluoro-3-(1-[1H-pyrazolo[3,4-b]pyridin-5-yloxy]ethyl)phenyl]-2-methoxypyridine-3-sulfonamide] | 500 to 1000
2 | COc1ncc(C#N)cc1S(=O)(=O)Nc1ccc(F)c(COc2cnc3[nH]ncc3c2)c1F [Compound 26, 5-cyano-N-[2,4-difluoro-3-([1H-pyrazolo[3,4-b]pyridin-5-yloxy]methyl)phenyl]-2-methoxypyridine-3-sulfonamide] | < 50
3 | COc1ncc(F)cc1S(=O)(=O)Nc1ccc(F)c(COc2cnc3[nH]ncc3c2C#N)c1F [Compound 27, N-[3-[([4-cyano-1H-pyrazolo[3,4-b]pyridin-5-yl]oxy)methyl]-2,4-difluorophenyl]-5-fluoro-2-methoxypyridine-3-sulfonamide] | < 50
4 | COc1ncc(Cl)cc1S(=O)(=O)Nc1ccc(F)c(COc2cnc3[nH]ncc3c2C#N)c1F [Compound 28, 5-chloro-N-[3-[([4-cyano-1H-pyrazolo[3,4-b]pyridin-5-yl]oxy)methyl]-2,4-difluorophenyl]-2-methoxypyridine-3-sulfonamide] | < 50
5 | COc1ncc(Cl)cc1S(=O)(=O)Nc1ccc(F)c(C(C)Nc2cnc3[nH]ncc3c2)c1F (stereo not shown) [Compound 29, 5-chloro-N-[2,4-difluoro-3-(1-[1H-pyrazolo[3,4-b]pyridin-5-ylamino]ethyl)phenyl]-2-methoxypyridine-3-sulfonamide] | > 1000
6 | Cc1ncc(F)cc1S(=O)(=O)Nc1ccc(F)c(COc2cnc3[nH]ncc3c2)c1F [Compound 30, N-(3-(((1H-pyrazolo[3,4-b]pyridin-5-yl)oxy)methyl)-2,4-difluorophenyl)-5-fluoro-2-methylpyridine-3-sulfonamide] | < 50
7 | CNc1nccn2c(CCc3c(F)ccc(NS(=O)(=O)c4cc(Cl)cnc4OC)c3F)cnc12 [Compound 31, 5-chloro-N-(2,4-difluoro-3-(2-(8-(methylamino)imidazo[1,2-a]pyrazin-3-yl)ethyl)phenyl)-2-methoxypyridine-3-sulfonamide] | < 50
8 | COc1ncc(Cl)cc1S(=O)(=O)Nc1ccc(F)c(CCc2cnc3c(N)nccn23)c1F [Compound 32, N-[3-(2-[8-aminoimidazo[1,2-a]pyrazin-3-yl]ethyl)-2,4-difluorophenyl]-5-chloro-2-methoxypyridine-3-sulfonamide] | < 50
9 | CCn1ncc2ncc(CCc3c(F)ccc(NS(=O)(=O)c4cc(Cl)cnc4OC)c3F)cc21 [Compound 33, 5-chloro-N-[3-(2-[1-ethylpyrazolo[4,3-b]pyridin-6-yl]ethyl)-2,4-difluorophenyl]-2-methoxypyridine-3-sulfonamide] | < 50
10 | CCn1ncc2ncc(CCc3c(F)ccc(NS(=O)(=O)c4cc(F)cnc4OC)c3F)cc21 [Compound 34, N-[3-(2-[1-ethylpyrazolo[4,3-b]pyridin-6-yl]ethyl)-2,4-difluorophenyl]-5-fluoro-2-methoxypyridine-3-sulfonamide] | < 50
11 | COc1ncc(Cl)cc1S(=O)(=O)Nc1ccc(F)c(CCc2cnc3cnn(C(C)C)c3c2)c1F [Compound 35, 5-chloro-N-[2,4-difluoro-3-(2-[1-isopropylpyrazolo[4,3-b]pyridin-6-yl]ethyl)phenyl]-2-methoxypyridine-3-sulfonamide] | < 50
12 | COc1ncc(F)cc1S(=O)(=O)Nc1ccc(F)c(CCc2cnc3cnn(C(C)C)c3c2)c1F [Compound 36, N-[2,4-difluoro-3-(2-[1-isopropylpyrazolo[4,3-b]pyridin-6-yl]ethyl)phenyl]-5-fluoro-2-methoxypyridine-3-sulfonamide] | 50 to 500
13 | COc1ncc(F)cc1S(=O)(=O)Nc1ccc(F)c(CCc2cnc3cn(C(C)C)nc3c2)c1F [Compound 37, N-[2,4-difluoro-3-(2-[2-isopropylpyrazolo[4,3-b]pyridin-6-yl]ethyl)phenyl]-5-fluoro-2-methoxypyridine-3-sulfonamide] | 50 to 500
14 | Cc1ncc(F)cc1S(=O)(=O)Nc1ccc(F)c(COc2cnc3[nH]nc(C)c3c2)c1F [Compound 38, N-[2,4-difluoro-3-[([3-methyl-1H-pyrazolo[3,4-b]pyridin-5-yl]oxy)methyl]phenyl]-5-fluoro-2-methylpyridine-3-sulfonamide] | < 50
15 | CCc1n[nH]c2ncc(OCc3c(F)ccc(NS(=O)(=O)c4cc(F)cnc4OC)c3F)cc12 [Compound 39, N-[3-[([3-ethyl-1H-pyrazolo[3,4-b]pyridin-5-yl]oxy)methyl]-2,4-difluorophenyl]-5-fluoro-2-methoxypyridine-3-sulfonamide] | < 50
16 | CCc1n[nH]c2ncc(OCc3c(F)ccc(NS(=O)(=O)c4cc(Cl)cnc4OC)c3F)cc12 [Compound 40, 5-chloro-N-[3-[([3-ethyl-1H-pyrazolo[3,4-b]pyridin-5-yl]oxy)methyl]-2,4-difluorophenyl]-2-methoxypyridine-3-sulfonamide] | < 50
17 | CCc1n[nH]c2ncc(OCc3c(F)ccc(NS(=O)(=O)c4cc(C#N)cnc4OC)c3F)cc12 [Compound 41, 5-cyano-N-[3-[([3-ethyl-1H-pyrazolo[3,4-b]pyridin-5-yl]oxy)methyl]-2,4-difluorophenyl]-2-methoxypyridine-3-sulfonamide] | < 50
18 | COc1ncc(Cl)cc1S(=O)(=O)Nc1ccc(F)c(COc2cnc3cnn(C)c3c2)c1F [Compound 42, 5-chloro-N-[2,4-difluoro-3-[([1-methylpyrazolo[4,3-b]pyridin-6-yl]oxy)methyl]phenyl]-2-methoxypyridine-3-sulfonamide] | < 50
19 | COc1ncc(F)cc1S(=O)(=O)Nc1ccc(F)c(COc2cnc3cnn(C)c3c2)c1F [Compound 43, N-[2,4-difluoro-3-[([1-methylpyrazolo[4,3-b]pyridin-6-yl]oxy)methyl]phenyl]-5-fluoro-2-methoxypyridine-3-sulfonamide] | < 50
20 | COc1ncc(F)cc1S(=O)(=O)Nc1ccc(F)c(COc2cnc3[nH]nc(C(F)(F)F)c3c2)c1F [Compound 44, N-[2,4-difluoro-3-([[3-(trifluoromethyl)-1H-pyrazolo[3,4-b]pyridin-5-yl]oxy]methyl)phenyl]-5-fluoro-2-methoxypyridine-3-sulfonamide] | < 50
21 | COc1ncc(F)cc1S(=O)(=O)Nc1ccc(F)c(OCc2cnc3[nH]nc(C)c3c2)c1F [Compound 45, N-[2,4-difluoro-3-([3-methyl-1H-pyrazolo[3,4-b]pyridin-5-yl]methoxy)phenyl]-5-fluoro-2-methoxypyridine-3-sulfonamide] | < 50
22 | COc1ncc(Cl)cc1S(=O)(=O)Nc1ccc(F)c(OCc2cnc3[nH]nc(C)c3c2)c1F [Compound 46, 5-chloro-N-[2,4-difluoro-3-([3-methyl-1H-pyrazolo[3,4-b]pyridin-5-yl]methoxy)phenyl]-2-methoxypyridine-3-sulfonamide] | < 50
23 | CCc1n[nH]c2ncc(OCc3c(F)ccc(NS(=O)(=O)c4cc(F)cnc4C)c3F)cc12 [Compound 47, N-[3-[([3-ethyl-1H-pyrazolo[3,4-b]pyridin-5-yl]oxy)methyl]-2,4-difluorophenyl]-5-fluoro-2-methylpyridine-3-sulfonamide] | < 50
24 | COc1ncc(C#N)cc1S(=O)(=O)Nc1ccc(F)c(OCc2cnc3[nH]nc(C)c3c2)c1F [Compound 48, 5-cyano-N-(2,4-difluoro-3-((3-methyl-1H-pyrazolo[3,4-b]pyridin-5-yl)methoxy)phenyl)-2-methoxypyridine-3-sulfonamide] | 50 to 500
25 | COc1ncc(C#N)cc1S(=O)(=O)Nc1ccc(F)c(NCc2cnc3[nH]nc(C)c3c2)c1F [Compound 49, 5-cyano-N-[2,4-difluoro-3-[([3-methyl-1H-pyrazolo[3,4-b]pyridin-5-yl]methyl)amino]phenyl]-2-methoxypyridine-3-sulfonamide] | 50 to 500
26 | COc1ncc(C#N)cc1S(=O)(=O)Nc1ccc(F)c(COc2cnc3[nH]nc(C)c3c2)c1F [Compound 50, 5-cyano-N-[2,4-difluoro-3-[([3-methyl-1H-pyrazolo[3,4-b]pyridin-5-yl]oxy)methyl]phenyl]-2-methoxypyridine-3-sulfonamide] | < 50
27 | Cc1ncc(F)cc1S(=O)(=O)Nc1ccc(F)c(OCc2cnc3[nH]nc(C)c3c2)c1F [Compound 51, N-[2,4-difluoro-3-([3-methyl-1H-pyrazolo[3,4-b]pyridin-5-yl]methoxy)phenyl]-5-fluoro-2-methylpyridine-3-sulfonamide] | 50 to 500
28 | COc1ncc(F)cc1S(=O)(=O)Nc1ccc(F)c(COc2cnc3[nH]nc(C(C)C)c3c2)c1F [Compound 52, N-[2,4-difluoro-3-[([3-isopropyl-1H-pyrazolo[3,4-b]pyridin-5-yl]oxy)methyl]phenyl]-5-fluoro-2-methoxypyridine-3-sulfonamide] | < 50
